According to patent US20250313546A1, “NUCLEIC ACID BINDERS” (UNIVERSITY OF STRATHCLYDE, priority 2022, published 2025):
Converted amounts (≈) assume the structure as drawn.

Legend:
[1] = test system: T. evansi AntTat 3/3; experiment: Resazurin-based (Alamar blue) drug sensitivity assay; conditions: read-out: IC50 T. evansi
[2] = test system: Candida auris (H.17.157); conditions: for MIC99: Candidozyma auris, read-out: MIC99 Candida auris; for C. auris Selectivity Indices, Group: Alkyl Amidines and NH Pyrroles
[3] = test system: T. equiperdum; experiment: Resazurin-based (Alamar blue) drug sensitivity assay; conditions: Trypanosoma equiperdum, read-out: IC50 T. equiperdum
Description: A detailed description of the procedure for evaluating activity against trypanosomes, using an Alamar Blue (resazurin) assay, is described below.
The bloodstream form (BSF) T. b. brucei s427 (see De Koning, H. P. et al., Mol. Biochem. Parasitol. 2000, 106, 181-185), T. evansi AntTat 3/3 (see Dean, S. et al., Proc. Natl. Acad. Sci. USA, 2013, 110, 14741-14746), and T. equiperdum (see Stewart, M. L. et al., Eukaryot. Cell, 2010, 9, 336-343) were cultured in HMI-9 medium (Life Technologies, Paisley, United Kingdom) supplemented with 10% heat inactivated Foetal Bovine Serum (FBS (PAA Laboratories Linz, Austria)), 14 μL/L β-mercaptoethanol (BDH, Dorset, UK), and 3.0 g/L NaHCO3 (Sigma-Aldrich) and adjusted to pH 7.4. These cell lines were maintained at 37° C. in a humidified, 5% CO2 environment.
A resazurin-based (Alamar blue) drug sensitivity assay was used to assess and compare the activity of standard trypanocides in the different cell lines investigated (see Gould, M. K. et al., Anal. Biochem., 2008, 382, 87-93). Briefly, 23 doubling dilutions of the test compound of the invention, starting at 100 μM, and a compound-free control were prepared in 100 μL medium in a 96-well white plate (Greiner Bio-one, Frickenhausen, Germany). The cells were adjusted to 2×10^4 cells/mL for T. b. brucei and T. equiperdum; 4×10^4 cells/mL for T. evansi; and 5×10^5 cells/mL for T. congolense in the appropriate medium. 100 μL of the adjusted cells was then added to the wells containing drug dilutions and incubated for 48 h under respective culture condition. Thereafter, 20 μL of 125 mg/mL resazurin sodium dye was added, and the plate was incubated for a further 24 h.

[4] = test system: Escherichia coli (ATCC 25922); experiment: Antibacterial MIC, broth microdilution (CLSI); assay type: cell-based; conditions: Escherichia coli, ATCC25922; read-out: MIC80 E. coli
[5] = test system: Enterococcus faecalis (ATCC 51299); experiment: Antibacterial MIC, broth microdilution (CLSI); assay type: cell-based; conditions: for MIC80: Enterococcus faecalis, ATCC51299, read-out: MIC80 E. faecalis; for E. faecalis Selectivity Indices, Group / E. faecalis Selectivity Index (SI): SI, IC50 (μM)/MIC80 (μM), HEK293 cytotoxicity; for E. faecalis Selectivity Index (SI): numeric value
[6] = test system: PolyAU double stranded RNA; experiment: Fluorescence intercalator displacement (FID) assay, SYBR-safe probe; conditions: 20 μM compound, 30° C., lower % = stronger binding
Method in brief: (§1)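 Compound at 20 μM mixed with 3.76 ng/mL polyAU dsRNA or salmon genomic dsDNA and 12500-fold diluted SybrSafe in 1 mM phosphate buffer pH 7.4, then heated to 30 °C and fluorescence read. Reduction is expressed as normalised %, with nucleic acid plus probe as maximum and probe alone as minimum.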

[7] = test system: Genomic double stranded DNA (salmon); experiment: as above; conditions: 20 μM compound, 30° C., lower % = stronger binding
Method in brief: as §1

[8] = test system: Rhizopus arrhizus (NEQAS12.35321); conditions: read-out: MIC99 Rhizopus arrhizus
Description: (§2) The Minimum Inhibitory Concentration (MIC, at 99% inhibition) of the compounds was determined using the broth microdilution method as recommended by EUCAST (EUCAST Definitive Document E.DEF 9.3.2, Method for the determination of broth dilution minimum inhibitory concentrations of antifungal agents for conidia forming moulds and EUCAST Definitive Document E.DEF 7.3.2 Method for the determination of broth dilution minimum inhibitory concentrations of antifungal agents for yeasts).

[9] = test system: Staphylococcus aureus (ATCC 43300); experiment: Antibacterial MIC, broth microdilution (CLSI); assay type: cell-based; conditions: for S. aureus Selectivity Indices, Group / S. aureus Selectivity Index (SI): SI, IC50 (μM)/MIC80 (μM), HEK293 cytotoxicity; for S. aureus Selectivity Index (SI): numeric value; for MIC80: Staphylococcus aureus, ATCC43300, read-out: MIC80 S. aureus
[10] = test system: Candida glabrata (ACPF3309); conditions: for MIC99: Nakaseomyces glabratus, read-out: MIC99 Candida glabrata; for C. glabrata Selectivity Indices, Group / C. glabrata Selectivity Index (SI): SI, IC50 (μM)/MIC99 (μg/mL), HEK293 cytotoxicity; for C. glabrata Selectivity Indices, Group: Alkyl Amidines and NH Pyrroles; for C. glabrata Selectivity Index (SI): numeric value
[11] = test system: A. fumigatus A1160 (MFIG001); conditions: Aspergillus fumigatus, read-out: MIC99 A. fumigatus A1160
[12] = test system: C. neoformans (F10025); conditions: Cryptococcus neoformans, read-out: MIC99 C. neoformans
Description: as §2

[13] = test system: T. vaginalis; experiment: Trichomonas resorufin assay; assay type: cell-based; conditions: Trichomonas vaginalis, read-out: IC50 T. vaginalis
[14] = SI, IC50 (μM)/MIC99 (μg/mL), HEK293 cytotoxicity

Row | Compound | IC50 [1] [nM] | MIC99 [2] [µg/mL] | IC50 [3] [nM] | MIC80 [4] [µM] | MIC80 [5] [µM] | % Normalised Fluorescence with polyAU RNA [6] [%] | % Normalised Fluorescence with gDNA [7] [%] | MIC99 [8] [µg/mL] | S. aureus Selectivity Index (SI) [9] | MIC80 [9] [µM] | MIC99 [10] [µg/mL] | MIC99 [11] [µg/mL] | MIC99 [12] [µg/mL] | E. faecalis Selectivity Index (SI) [5] | further results
1 | Cn1cc(NC(=O)c2ccc(/C=C/c3cnc4ccccc4c3)cc2)cc1C(=O)Nc1c[nH]c(C(=O)NCCC(=N)N)c1 [IIIa2, (E)-N-(5-((3-amino-3-iminopropyl)carbamoyl)-1H-pyrrol-3-yl)-1-methyl-4-(4-(2-(quinolin-3-yl)vinyl)benzamido)-1H-pyrrole-2-carboxamide] | 10 to 100 | 5 to 25 (≈ 8.7 to 43.5 µM) | 10 to 100 | > 100 | > 100 | 21 | 17 | 25 to 50 (≈ 43.5 to 87 µM) | 11 | < 5 | < 5 | 5 to 25 (≈ 8.7 to 43.5 µM) | < 5 | – | C. auris Selectivity Indices, Group [2, 14]: C (Group C 1 < SI <= 3); C. auris Selectivity Index (SI) ([2]; SI, IC50 (μM)/MIC99 (μg/mL), HEK293 cytotoxicity, numeric value): 3; S. aureus Selectivity Indices, Group ([9]; Alkyl Amidines and NH Pyrroles): D (D: SI > 10); C. glabrata Selectivity Indices, Group [10]: C (Group C 20 < SI <= 50); C. glabrata Selectivity Index (SI) [10]: 47
2 | Cn1cc(NC(=O)c2cc(NC(=O)c3ccc(/C=C/c4cnc5ccccc5c4)cc3)c[nH]2)cc1C(=O)NCCC(=N)N [IIIa4, (E)-N-(3-amino-3-iminopropyl)-1-methyl-4-(4-(4-(2-(quinolin-3-yl)vinyl)benzamido)-1H-pyrrole-2-carboxamido)-1H-pyrrole-2-carboxamide] | 10 to 100 | 25 to 50 (≈ 43.5 to 87 µM) | < 10 | 25 to 100 (≈ 14.4 to 57.5 µg/mL) | < 5 | 3 | 14 | 5 to 25 (≈ 8.7 to 43.5 µM) | 81 | < 5 | < 5 | 5 to 25 (≈ 8.7 to 43.5 µM) | < 5 | 41 | C. auris Selectivity Indices, Group [2, 14]: C (Group C 1 < SI <= 3); E. faecalis Selectivity Indices, Group ([5]; Alkyl Amidines and NH Pyrroles): D (D: SI > 10); S. aureus Selectivity Indices, Group ([9]; Alkyl Amidines and NH Pyrroles): D (D: SI > 10); C. glabrata Selectivity Indices, Group [10]: D (Group D: SI > 50); C. glabrata Selectivity Index (SI) [10]: 652
3 | N=C(N)CCNC(=O)c1cc(NC(=O)c2cc(NC(=O)c3ccc(/C=C/c4ccc5nonc5c4)cc3)c[nH]2)c[nH]1 [IIIa8, (E)-N-(3-amino-3-iminopropyl)-4-(4-(4-(2-(benzo[c][1,2,5]oxadiazol-5-yl)vinyl)benzamido)-1H-pyrrole-2-carboxamido)-1H-pyrrole-2-carboxamide] | 10 to 100 | > 50 | < 10 | > 100 | > 100 | 10 | 31 | > 50 | – | 25 to 100 (≈ 13.8 to 55.2 µg/mL) | > 50 | > 50 | 5 to 25 (≈ 9.07 to 45.3 µM) | – | –
4 | Cn1cc(NC(=O)c2ccc(/C=C/c3cnc4ccccc4c3)cc2)cc1C(=O)Nc1c[nH]c(C(=O)NCCN2CCOCC2)c1 [IIIb4, (E)-1-methyl-N-(5-((2-morpholinoethyl)carbamoyl)-1H-pyrrol-3-yl)-4-(4-(2-(quinolin-3-yl)vinyl)benzamido)-1H-pyrrole-2-carboxamide] | 10 to 100 | – | 10 to 100 | > 100 | > 100 | 86 | 37 | – | – | < 5 | > 50 | > 50 | > 50 | – | –
5 | O=C(Nc1c[nH]c(C(=O)Nc2c[nH]c(C(=O)NCCN3CCOCC3)c2)c1)c1ccc(/C=C/c2cnc3ccccc3c2)cc1 [IIIb5, (E)-N-(2-morpholinoethyl)-4-(4-(4-(2-(quinolin-3-yl)vinyl)benzamido)-1H-pyrrole-2-carboxamido)-1H-pyrrole-2-carboxamide] | 10 to 100 | – | 10 to 100 | > 100 | > 100 | 59 | 49 | – | – | < 5 | > 50 | > 50 | > 50 | – | –
6 | O=C(Nc1c[nH]c(C(=O)Nc2c[nH]c(C(=O)NCCN3CCOCC3)c2)c1)c1ccc(/C=C/c2ccc3nonc3c2)cc1 [IIIb6, (E)-4-(4-(2-(benzo[c][1,2,5]oxadiazol-5-yl)vinyl)benzamido)-N-(5-((2-morpholinoethyl)carbamoyl)-1H-pyrrol-3-yl)-1H-pyrrole-2-carboxamide] | 100 to 1000 | – | 10 to 100 | > 100 | > 100 | 53 | 84 | – | – | 25 to 100 (≈ 14.9 to 59.5 µg/mL) | – | – | – | – | –
7 | Cn1cc(NC(=O)c2cc(NC(=O)c3ccc(/C=C/c4ccc5nonc5c4)cc3)c[nH]2)cc1C(=O)NCCN1CCOCC1 [IIIb9, (E)-4-(4-(4-(2-(benzo[c][1,2,5]oxadiazol-5-yl)vinyl)benzamido)-1H-pyrrole-2-carboxamido)-1-methyl-N-(2-morpholinoethyl)-1H-pyrrole-2-carboxamide] | 100 to 1000 | – | 10 to 100 | > 100 | 5 to 25 (≈ 3.04 to 15.2 µg/mL) | 30 | 55 | – | – | 5 to 25 (≈ 3.04 to 15.2 µg/mL) | – | – | – | – | –
8 | Cn1cc(NC(=O)c2cc(NC(=O)c3ccc(/C=C/c4cnc5ccccc5c4)cc3)cn2C)cc1C(N)=O [IVa1, (E)-N-(5-carbamoyl-1-methyl-1H-pyrrol-3-yl)-1-methyl-4-(4-(2-(quinolin-3-yl)vinyl)benzamido)-1H-pyrrole-2-carboxamide] | 100 to 1000 | – | 100 to 1000 | > 100 | < 5 | 65 | 41 | – | – | < 5 | – | – | – | 3 | E. faecalis Selectivity Indices, Group ([5]; Amides): C (Group: C, 1.5 < SI <= 5); S. aureus Selectivity Indices, Group ([9]; Amides): B (Group B: 1.4 < SI <= 3)
9 | CNC(=O)c1cc(NC(=O)c2cc(NC(=O)c3ccc(/C=C/c4cnc5ccccc5c4)cc3)cn2C)cn1C [IVa2, (E)-N,1-dimethyl-4-(1-methyl-4-(4-(2-(quinolin-3-yl)vinyl)benzamido)-1H-pyrrole-2-carboxamido)-1H-pyrrole-2-carboxamide] | 100 to 1000 | – | 100 to 1000 | > 100 | < 5 | 73 | 29 | – | 4 | < 5 | – | – | – | 10 | E. faecalis Selectivity Indices, Group ([5]; Amides): D (Group D: SI > 5); S. aureus Selectivity Indices, Group ([9]; Amides): C (Group C: SI > 3)
10 | CCCCCCCCCC[N+](C)(C)CCNC(=O)c1cc(NC(=O)c2cc(NC(=O)c3ccc(/C=C/c4cnc5ccccc5c4)cc3)cn2C)cn1C [Ic9, (E)-N,N-dimethyl-N-(2-(1-methyl-4-(1-methyl-4-(4-(2-(quinolin-3-yl)vinyl)benzamido)-1H-pyrrole-2-carboxamido)-1H-pyrrole-2-carboxamido)ethyl)decan-1-aminium] | 10 to 100 | > 50 | 100 to 1000 | > 100 | 5 to 25 | – | – | > 50 | – | < 5 | > 50 | > 50 | 5 to 25 | – | IC50 [13]: 5000 to 50000 nM; E. faecalis Selectivity Indices, Group ([5]; Quaternary ammoniums): B (Group B: 0.7 < SI <= 2); S. aureus Selectivity Indices, Group ([9]; Quaternary ammoniums): B (Group B: 2 < SI <= 5)
